# Measurements as given in BindingDB's records for patent US20240158413 (Soter Biopharma, 2024).
# Biological target: T1, Gonadotropin-releasing hormone receptor (Homo sapiens, UniProt P30968)
# T1 sequence (P30968 whole entry): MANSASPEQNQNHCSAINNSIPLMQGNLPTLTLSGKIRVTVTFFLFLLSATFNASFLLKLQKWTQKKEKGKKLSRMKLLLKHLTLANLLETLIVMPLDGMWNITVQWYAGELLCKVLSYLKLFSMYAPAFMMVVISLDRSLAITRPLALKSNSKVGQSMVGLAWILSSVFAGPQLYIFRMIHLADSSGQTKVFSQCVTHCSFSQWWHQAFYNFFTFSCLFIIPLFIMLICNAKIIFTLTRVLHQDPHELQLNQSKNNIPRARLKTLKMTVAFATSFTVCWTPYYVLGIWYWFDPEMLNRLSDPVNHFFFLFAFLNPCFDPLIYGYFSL
# Test: Inhibitory Activity Assay
# Experimental: GnRH/HEK293 (human embryonic kidney cell 293) cultured cells in the logarithmic growth phase were washed with DPBS (Dulbecco's phosphate buffered saline) buffer, and an appropriate amount of 0.05% EDTA (ethylenediaminetetraacetic acid)-trypsin was added. The cells were placed in a carbon dioxide incubator at 37° C. for digestion for 1-2 minutes, and then removed from the incubator. A medium was added to the cells to terminate the digestion. Cells were dispersed by repeated pipetting and harvested by centrifugation. The cells were seeded into a 384-well Poly-Lysine-Coated. Cell Plate at a density of 20,000 cells per well. […] The fluorescence signal was read. Then 10 μL of the reference compound as an agonist was added, and the fluorescent signal was read. […] The fluorescent signal was read. Then 10 μL of agonist with a concentration of 6×EC50 was added to the cell plate and the fluorescent signal was read.IC50 of the compound to inhibit the calcium flow of gonadotropin-releasing hormone receptor, i.e., the drug concentration when the Ca2+ flow was inhibited by half in the cells stably expressing the GnRH receptor, was calculated. The IC50 of the drug was calculated by GraphPad Prism 5.0 software.
row,IC50 [nM],Structure (SMILES)
1,3.2,"Cc1c(F)ccc2c1COc1cc(C3C(=O)Nc4csc(C(=O)O)c4C3=O)c(F)cc1OCCCO2 (configuration not stated) [US20240158413, Compound 1]"
2,9.2,"O=C(O)c1scc2c1C(=O)C(c1cc3c(cc1F)OCC1(CC1)COc1ccc(F)c(F)c1CO3)C(=O)N2 (configuration not stated) [US20240158413, Compound 2]"
